Experiments:
dog [1] = conditions: Subchronic oral toxicity in nonrodent, beagle, Gavage/Intubation, dose end: 14 week, group: systemic
rat [2] = conditions: Other (NonGuideline or Guideline Not Listed); sprague dawley; Oral; Gavage/Intubation; dose end: 1 day; group: cannot be grouped; systemic / in life observation / clinical signs / salivation + systemic / in life observation / clinical signs / urogenital staining
rat [3] = conditions: Fertility (Segment I); sprague dawley; Oral; Gavage/Intubation; dose end: 7 GD; group: parental; systemic / in life observation / food consumption / food consumption + systemic / organ weight / uterus / nos
rat [4] = conditions: Prenatal developmental toxicity study; sprague dawley; Oral; Gavage/Intubation; dose end: 17 GD; group: maternal; systemic / in life observation / body weight / body weight gain
dog [5] = conditions: Sub-acute repeat dose toxicity; beagle; Oral; Gavage/Intubation; dose end: 4 week; group: systemic; systemic / hematology / blood clotting / blood clotting - prothrombin time + systemic / hematology / blood clotting / blood clotting - …
rat [6] = conditions: Sub-acute repeat dose toxicity; sprague dawley; Oral; Gavage/Intubation; dose end: 4 week; group: systemic; systemic / hematology / blood clotting / blood clotting - activated partial thromboplastin time + systemic / hematology / blood clotting / …
dog [7] = conditions: Subchronic oral toxicity in nonrodent, beagle, Gavage/Intubation, dose end: 3 month, group: systemic, systemic / hematology / blood clotting / blood clotting - activated partial thromboplastin time + systemic / hematology / blood clotting / …
rat [8] = conditions: Prenatal developmental toxicity study, sprague dawley, Oral, Gavage/Intubation, dose end: 17 GD
rabbit [9] = conditions: Prenatal developmental toxicity study, new zealand white, Oral, Gavage/Intubation, dose end: 19 GD
rabbit [10] = conditions: Prenatal developmental toxicity study, new zealand white, Oral, Gavage/Intubation, dose end: 19 GD; remark: listed apart in the source
rat [11] = conditions: Chronic toxicity, sprague dawley, Oral, Gavage/Intubation, dose end: 6 month, group: systemic
[12] = systemic / clinical chemistry / chloride / chloride + systemic / clinical chemistry / phosphorus / phosphorus + systemic / clinical …
[13] = systemic / clinical chemistry / phosphorus / phosphorus + systemic / pathology microscopic / bone / [other]
[14] = group: developmental, developmental / developmental malformation / bone / supernumerary
[15] = group: maternal, systemic / in life observation / body weight / body weight gain + systemic / in life observation / food consumption / food consumption
[16] = group: developmental, developmental / developmental malformation / general / [other] + systemic / in life observation / body weight / fetal weight
[17] = group: maternal, systemic / in life observation / body weight / body weight gain + systemic / in life observation / clinical signs / alopecia + systemic / in…
[18] = group: developmental, systemic / in life observation / body weight / fetal weight
[19] = group: maternal, systemic / in life observation / body weight / body weight gain + systemic / in life observation / food consumption / food consumption + …
[20] = systemic / hematology / blood clotting / blood clotting - activated partial thromboplastin time + systemic / hematology / blood clotting / …
[21] = systemic / in life observation / body weight / body weight gain + systemic / organ weight / pituitary gland / relative to body weight + …

Cc1ncc([C@@H](CCCCCCc2ccc3c(n2)NCCC3)CC(=O)O)cn1
LOAEL (dog [1]; [12]): > 45 mg/kg/day | NOAEL (dog [1]; [12]): ≥ 45 mg/kg/day | LEL (dog [1]; [13]): 5 mg/kg/day | NEL (dog [1]; [13]): < 5 mg/kg/day | LEL (rat [2]): 2000 mg/kg/day | LOAEL (rat [2]): > 2000 mg/kg/day | NEL (rat [2]): < 2000 mg/kg/day | NOAEL (rat [2]): ≥ 2000 mg/kg/day

O=C([O-])c1ccc2c(c1)nc(C(=O)NC1CCN(C3CC3)CC1)n2Cc1cc(-c2ccc(Cl)s2)on1.[Na+] [AVE3247]
LEL (rat [3]): 2000 mg/kg/day | LOAEL (rat [3]): > 2000 mg/kg/day | NEL (rat [3]): 500 mg/kg/day | NOAEL (rat [3]): ≥ 2000 mg/kg/day | LEL (rat [4]): 2000 mg/kg/day | LOAEL (rat [4]): > 2000 mg/kg/day | NEL (rat [4]): 1000 mg/kg/day | NOAEL (rat [4]): ≥ 2000 mg/kg/day | LEL (dog [5]): 10 mg/kg/day | LOAEL (dog [5]): > 100 mg/kg/day | NEL (dog [5]): < 10 mg/kg/day | NOAEL (dog [5]): ≥ 100 mg/kg/day | LEL (rat [6]): 200 mg/kg/day | LOAEL (rat [6]): > 2000 mg/kg/day | NEL (rat [6]): < 200 mg/kg/day | NOAEL (rat [6]): ≥ 2000 mg/kg/day | LEL (dog [7]): 10 mg/kg/day | LOAEL (dog [7]): > 80 mg/kg/day | NEL (dog [7]): < 10 mg/kg/day | NOAEL (dog [7]): ≥ 80 mg/kg/day | LEL (rat [8]; [14]): 500 mg/kg/day | LOAEL (rat [8]; [14]): 500 mg/kg/day | NEL (rat [8]; [14]): 200 mg/kg/day | NOAEL (rat [8]; [14]): 200 mg/kg/day | LEL (rat [8]; [15]): 2000 mg/kg/day | LOAEL (rat [8]; [15]): 2000 mg/kg/day | NEL (rat [8]; [15]): 500 mg/kg/day | NOAEL (rat [8]; [15]): 500 mg/kg/day | LEL (rabbit [9]; [16]): 2000 mg/kg/day | LOAEL (rabbit [9]; [16]): > 2000 mg/kg/day | NEL (rabbit [9]; [16]): 1000 mg/kg/day | NOAEL (rabbit [9]; [16]): ≥ 2000 mg/kg/day | LEL (rabbit [9]; [17]): 500 mg/kg/day | LOAEL (rabbit [9]; [17]): 1000 mg/kg/day | NEL (rabbit [9]; [17]): < 500 mg/kg/day | NOAEL (rabbit [9]; [17]): 500 mg/kg/day | LEL (rabbit [10]; [18]): 2000 mg/kg/day | LOAEL (rabbit [10]; [18]): 2000 mg/kg/day | NEL (rabbit [10]; [18]): 500 mg/kg/day | NOAEL (rabbit [10]; [18]): 500 mg/kg/day | LEL (rabbit [10]; [15]): 500 mg/kg/day | LOAEL (rabbit [10]; [15]): 500 mg/kg/day | NEL (rabbit [10]; [19]): 200 mg/kg/day | NOAEL (rabbit [10]; [19]): 200 mg/kg/day | LEL (rat [11]; [20]): 200 mg/kg/day | NEL (rat [11]; [20]): < 200 mg/kg/day | LOAEL (rat [11]; [21]): 2000 mg/kg/day | NOAEL (rat [11]; [21]): 500 mg/kg/day

Reference: EPA's ToxRefDB 2
